In patent US20210087159A1, “TETRAHYDROCANNABINOLIC- CA[…] DERIVATIVES AND USES THEREOF” (AL&AM […]., priority 2018, published 2021):

Legend:
Assay type in all cases: cell-based
[1] = system: PANC-1 (pancreatic carcinoma); test: XTT cytotoxicity assay (Pharma Seed); conditions: Homo sapiens, 48 hours, 20, 10, 5, 1 μM, assay medium 1% FBS
Protocol: In this study, the cytotoxicity of several compounds of the present invention on lung and pancreatic cancer cell was evaluated.
PANC-1 (pancreatic carcinoma) culture medium: DMEM (High Glucose), supplemented with 10% FBS (heat inactivated), 2 mM L-glutamine, and 1% of Pen/Strep/Amp solution. PANC-1 assay medium: DMEM (High Glucose), supplemented with 1% FBS (heat inactivated), 2 mM L-glutamine, and 1% of Pen/Strep/Amp solution.
Each of the tested compounds was dissolved in DMSO to reach a stock concentration of 20 mM (and stored at −15° C.-−25° C. until use. Compound Ia28 (MW 484 g/mol, 3.05 mg total) was dissolved in 0.315 mL; compound Ia9 (MW 484 g/mol, 2.33 mg total) was dissolved in 0.241 mL; and compound Ia6 (MW 428.3 g/mol, 2.25 mg total) was dissolved in 0.262 mL.
On the day of incubation with the cells, each compound was diluted in DMSO to reach 2 mM, 1 mM, 0.5 mM, 0.1 mM stock concentrations (1:10, 1:20, 1:40 and 1:200), and each of these stocks was further diluted in assay medium 1:100 for final concentration of 20 μM, 10 μM, 5 μM, and 1 μM.
Part 1—cell number calibration. PANC-1 and A549 cells were each plated in a 96 well plate, in their culture medium, at various cell concentrations per well, in triplicates, and were allowed to attach for 24 hours. Thereafter, culture medium was discarded, assay medium was added, and the cells were incubated for additional 72 hours. Finally, assay medium was discarded, and fresh culture medium was added to the cells along with 50 μl XTT reagent. The OD was measured every two hours for 6 hours (three times).
The highest cells number/well were chosen for part 2 as follows: PANC-1 at 7,500 cells per well, A549 at 5000 cells per well.
Part 2—cells incubation with tested compounds. PANC-1 and A549 cells were plated in a 96 well plate, in their culture medium, at the optimal cell concentration according to the results from the previous section and were allowed to attach for 24 hours. Thereafter, the culture medium was discarded, and fresh assay medium was added to the cells, supplemented with elevating compound concentrations. Triton 0.1% was used as positive control for cell death. The cells were incubated for another 48 hours (TBD upon microscopic observation). Finally, fresh culture medium was added to the cells along with 50 μl XTT reagent. The OD was measured at the optimal time point according to the results in the previous section.

TNF-α = test: LPS induced cytokine release assay, TNF-α by ELISA in PBMCs; conditions: human PBMCs; for TNF-α: 72 h, ELISA (LPS control 18.16); for change of TNF-α expression in LPS-treated cells: tested concentrations of 1 M and 10 M (so in the source)
Text: (§1) This study was aimed to test the effect of 12 compounds (THCA, Ia1, Ia5, Ia6, Ia9, Ia11, Ia15, Ia17, Ia24, Ia25, Ia27, and Ia28) on human peripheral blood mononuclear cells (PBMCs) challenged by lipopolysaccharide (LPS) through monitoring multiple inflammatory endpoints.
(§2) Blood samples were collected from healthy volunteers according to protocols that have been reviewed and approved by the Chempartner Institutional Ethic Committee (IEC) upon signing an Informed Consent Form (ICF).
(§3) Fresh PBMCs were isolated and seeded into 96-well plate, and diluted solutions of the tested compounds and 0.1 μg/mL LPS were then added (in triplicates). To serve as control, 3 wells with PBMCs only, 3 wells with 0.1 μg/mL LPS, and 2 wells with 1 μg/mL dexamethasone (Dex) and 0.1 μg/mL LPS were included. After 72 hours incubation, supernatant was collected for tumor necrosis factor-α (TNF-α) measurement by enzyme-linked immunosorbent assay (ELISA), and cell pellets were harvested for cell proliferation measurement by CellTiter-Glo® Luminescent Cell Viability Assay (CTG).
(§4) The human blood sample from an individual donor was diluted by the same volume of sterile phosphate buffered solution (PBS) and mixed sufficiently by gentle shake. 15 mL Lymphoprep™ medium was transferred into a new 50 mL centrifuge tube, and the diluted blood sample (30 mL) was then carefully added onto the surface of the medium, which consequently contained Ficoll 400 and blood in a volume ratio of 1:2. Four interfaces were observed after centrifugation, which are, from top to bottom, layers of plasma, mononuclear cells, Ficoll medium, and red blood cells (RBCs). Plasma was absorbed, and mononuclear cells were then transferred into another new sterile centrifuge tube. Then, sterile PBS buffer was added into the collected PBMCs for washing, at a volume ratio of 3:1. PBMCs were washed with 5-10 mL PBS twice before cell counting with cytometer. Cells were centrifuged at 350×g, for 10 min, at 20° C. with the acceleration (5) and deceleration (5) settings during the centrifugation. The cells were resuspended with RPMI 1640 complete medium (containing 10% FBS) for assay, and the density was adjusted with RPMI 1640 complete medium to the final concentration of 2E6 cells/mL. Cells suspension of the PBMCs (100 μL/well) were seeded into 96-well plate (#3903).
(§5) Diluted solutions of the tested compounds were prepared with RPMI 1640 complete medium according to the following layout. Compounds were prepared at 5-fold of concentration (50 μM), and then were diluted to the working concentration of 10 μM with RPMI 1640 complete medium and made 10-fold serially dilution (2 points). The diluted compounds (50 μL/well) were added to the indicated wells, and the plate was incubated at 37° C., 5% CO2, for 72 h.
(§6) LPS (0.1 μg/mL, 100 μL) was added into each well. Dex (1 μg/mL) was included as a positive control. Plate was incubated at 37° C., 5% CO2 for 72 h. Supernatant was collected to measure TNF-α by ELISA. Cell proliferation was detected by CTG.

U251, brain human glioma = test: CellTiter-Glo cell viability assay, cancer cell cytotoxicity/anti-proliferation panel (Chempartner); conditions: for IC50: Homo sapiens, U-251, 72 h, read-out: IC50 (absolute IC50); for Inhibition: U251, 72 hours, compounds 10 μM starting, STS 2 μM starting, 10-pt, 3-fold dilution
[2] = system: human peripheral blood mononuclear cells (PBMCs); test: Cell proliferation of LPS-challenged PBMCs by CellTiter-Glo (CTG); conditions: for effect on cell proliferation: LPS-treated human PBMCs, CTG; for CTG signal: human PBMCs, 72 h (LPS control 84.50)
Text: as §1, §2, §3, §4, §5, §6

With `CCCCCc1cc2c(c(O)c1C(=O)NCCN(C)C)[C@@H]1C=C(C)CC[C@H]1C(C)(C)O2` [Ia6, (6aR,0aR)—N-(2-(dimethylamino)ethyl)-1-hydroxy-6,6,9-trimethyl-3-pentyl-6a,7,8,10a-tetrahydro-6H-benzo[c]chromene-2-carboxamide] the IC50 [1] was 9.4 µM, the TNF-α (TNF-α; compound 1 μM + 0.1 μg/mL LPS) was 17.09 pg/mL and the TNF-α (TNF-α; compound 10 μM + 0.1 μg/mL LPS) was 49.73 pg/mL. The “change of TNF-α expression in LPS-treated cells” value (shortened to “change of TNF-α expression”) (TNF-α) was “increased TNF-α expression”, the IC50 (U251, brain human glioma) was 7.23 µM and the Inhibition (U251, brain human glioma) was 70.02%. The “effect on cell proliferation” value [2] was “inhibition of cell proliferation”, the CTG signal ([2]; compound 1 μM + 0.1 μg/mL LPS) was 80.67 10^4 and the CTG signal ([2]; compound 10 μM + 0.1 μg/mL LPS) was 37.67 10^4.

`CCCCCc1cc2c(c(O)c1C(=O)NCCCN1CCOCC1)[C@@H]1C=C(C)CC[C@H]1C(C)(C)O2` [Ia9, (6aR,0aR)-1-hydroxy-6,6,9-trimethyl-N-(3-morpholinopropyl)-3-pentyl-6a,7,8,10a-tetrahydro-6H-benzo[c]chromene-2-carboxamide] was tested, and the IC50 [1] was 11.4 µM, the TNF-α (TNF-α; compound 1 μM + 0.1 μg/mL LPS) was 20.26 pg/mL and the TNF-α (TNF-α; compound 10 μM + 0.1 μg/mL LPS) was 45.82 pg/mL. For the same compound, the “change of TNF-α expression” value (TNF-α) was “increased TNF-α expression”, the IC50 (U251, brain human glioma) was 8.91 µM and the Inhibition (U251, brain human glioma) was 68.11%. The “effect on cell proliferation” value [2] was “inhibition of cell proliferation”, the CTG signal ([2]; compound 1 μM + 0.1 μg/mL LPS) was 77.55 10^4 and the CTG signal ([2]; compound 10 μM + 0.1 μg/mL LPS) was 23.31 10^4.

Work on `C=C(C)[C@@H]1CCC(C)=C[C@H]1c1c(O)cc(CCCCC)c(C(=O)NCCCN2CCOCC2)c1O` [Ia28, (1′R,2′R)-2,6-dihydroxy-5′-methyl-N-(3-morpholinopropyl)-4-pentyl-2′-(prop-1-en-2-yl)-1′,2′,3′,4′-tetrahydro-[1,1′-biphenyl]-3-carboxamide] yielded an IC50 [1] of 19 µM, a TNF-α (TNF-α; compound 1 μM + 0.1 μg/mL LPS) of 41.38 pg/mL and a TNF-α (TNF-α; compound 10 μM + 0.1 μg/mL LPS) of 22.35 pg/mL. The “change of TNF-α expression” value (TNF-α) was “decreased TNF-α expression”, the CTG signal ([2]; compound 1 μM + 0.1 μg/mL LPS) was 76.24 10^4 and the CTG signal ([2]; compound 10 μM + 0.1 μg/mL LPS) was 72.61 10^4.

In the case of `CCCCCc1cc2c(c(O)c1C(=O)O)[C@@H]1C=C(C)CC[C@H]1C(C)(C)O2` [THCA, tetrahydrocannabinolic acid, reference compound], the TNF-α (TNF-α; compound 1 μM + 0.1 μg/mL LPS) is reported as 21.04 pg/mL, the TNF-α (TNF-α; compound 10 μM + 0.1 μg/mL LPS) is reported as 27.57 pg/mL and the “change of TNF-α expression” value (TNF-α) is reported as “increased TNF-α expression”. For the same compound, the IC50 (U251, brain human glioma) was greater than 10 µM, the Inhibition (U251, brain human glioma) was 17.22% and the CTG signal ([2]; compound 1 μM + 0.1 μg/mL LPS) was 74.89 10^4. The CTG signal ([2]; compound 10 μM + 0.1 μg/mL LPS) was 75.54 10^4.
